Assay results from patent US9834558B2, “Substituted bridged urea analogs as sirtuin modulators” (GLAXOSMITHKLINE LLC, priority 2013, dated 2017).

Target: T1, SIRT1 (Homo sapiens, UniProt Q96EB6)
T1 sequence (Q96EB6 1-747): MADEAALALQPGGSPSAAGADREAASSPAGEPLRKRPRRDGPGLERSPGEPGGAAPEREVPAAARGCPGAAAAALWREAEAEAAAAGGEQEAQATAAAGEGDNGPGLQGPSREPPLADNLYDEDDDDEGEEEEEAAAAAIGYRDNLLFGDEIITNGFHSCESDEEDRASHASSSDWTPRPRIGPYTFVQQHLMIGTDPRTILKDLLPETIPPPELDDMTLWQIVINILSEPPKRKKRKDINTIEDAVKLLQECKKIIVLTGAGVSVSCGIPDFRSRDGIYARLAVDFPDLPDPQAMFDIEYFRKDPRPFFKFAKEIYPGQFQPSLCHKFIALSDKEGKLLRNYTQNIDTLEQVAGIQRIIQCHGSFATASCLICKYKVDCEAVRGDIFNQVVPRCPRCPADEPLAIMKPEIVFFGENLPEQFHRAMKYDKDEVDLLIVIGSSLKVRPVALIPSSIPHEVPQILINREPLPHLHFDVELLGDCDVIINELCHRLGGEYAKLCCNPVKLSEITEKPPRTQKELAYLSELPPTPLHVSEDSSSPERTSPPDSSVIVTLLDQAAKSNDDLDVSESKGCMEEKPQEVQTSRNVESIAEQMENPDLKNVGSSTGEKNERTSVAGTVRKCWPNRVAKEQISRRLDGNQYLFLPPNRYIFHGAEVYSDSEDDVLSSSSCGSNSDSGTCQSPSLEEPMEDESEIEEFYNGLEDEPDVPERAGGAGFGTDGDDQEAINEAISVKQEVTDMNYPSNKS
Assay: Trp mass spectrometry assay of SIRT1 activation
Format: biochemical
Details: Trp peptide assay; EC1.5 = concentration that results in 150% activation of SIRT1
Method in brief: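 N-terminal His-tagged human SIRT1 (10 nM, E. coli BL21(DE3)) with 0.5 μM Ac-RHKK(Ac)W-NH2 peptide and 120 μM βNAD+, 25 min at 25 °C in HEPES pH 7.5, formic acid stop. OAADPR or deacetylated peptide quantified by mass spectrometry; EC1.5 (50% activity increase over control) and Percent Maximum Activation reported.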

| Compound | TRP Activity (EC1.5) |
| --- | --- |
| O=C(Nc1ccccn1)N1c2nc(N3CC[C@H](C(F)(F)F)C3)ccc2N2CCC[C@H]1C2 [drawing 1101, (9S)-N-(pyridin-2-yl)-5-[(3S)-3-(trifluoromethyl)pyrrolidin-1-yl]-1,6,8-triazatricyclo[7.3.1.0 {2,7}]trideca-2(7),3,5-triene-8-carboxamide] | B (B (EC1.5 1-25 μM)) |
| O=C(Nc1ccccn1)N1c2nc(N3CCC[C@H](C(F)(F)F)C3)ccc2N2CCC[C@H]1C2 [drawing 1118, (9S)-N-(pyridin-2-yl)-5-[(3S)-3-(trifluoromethyl)piperidin-1-yl]-1,6,8-triazatricyclo[7.3.1.0 {2,7}]trideca-2(7),3,5-triene-8-carboxamide] | A (A (EC1.5<1 μM)) |
| O=C(Nc1ccccn1)N1c2nc(N3CCC[C@H](C(F)(F)F)C3)ccc2N2CCC[C@H]1C2 [drawing 1172, (9S)-N-(pyridin-2-yl)-5-[(3S)-3-(trifluoromethyl)piperidin-1-yl]-1,6,8-triazatricyclo[7.3.1.0 {2,7}]trideca-2(7),3,5-triene-8-carboxamide] | B (B (EC1.5 1-25 μM)) |

Same assay, conditions: Trp peptide assay; maximum activity relative to control (100%)

| Compound | TRP MAX RESP (percent maximum fold activation) |
| --- | --- |
| O=C(Nc1ccccn1)N1c2nc(N3CCC[C@H](C(F)(F)F)C3)ccc2N2CCC[C@H]1C2 [drawing 1118, (9S)-N-(pyridin-2-yl)-5-[(3S)-3-(trifluoromethyl)piperidin-1-yl]-1,6,8-triazatricyclo[7.3.1.0 {2,7}]trideca-2(7),3,5-triene-8-carboxamide] | A (A (Fold activation ≧150%)) |

Same assay, conditions: Trp peptide assay; maximum activity relative to control (100%); read-out: TRP MAX RESP (percent maximum fold activation)

| Compound | Emax [%] |
| --- | --- |
| O=C(Nc1ccccn1)N1c2nc(N3CCC[C@H](C(F)(F)F)C3)ccc2N2CCC[C@H]1C2 [drawing 1172, (9S)-N-(pyridin-2-yl)-5-[(3S)-3-(trifluoromethyl)piperidin-1-yl]-1,6,8-triazatricyclo[7.3.1.0 {2,7}]trideca-2(7),3,5-triene-8-carboxamide] | > 150 |

Same assay, conditions: concentration giving 150% activation of SIRT1; Trp peptide substrate

| Compound | Tryp AVG EC1.5 (μM) |
| --- | --- |
| CC(C)(C)OC(=O)NCCCc1cc(NC(=O)N2c3nc(-c4cccc(C(F)(F)F)c4)ccc3N3CC[C@H]2C3)cc(-c2cnco2)c1 [Example 759] | B (B (EC1.5 1-25 μM)) |
| CC(C)(C)OC(=O)NCC#Cc1cc(NC(=O)N2c3nc(-c4cccc(C(F)(F)F)c4)ccc3N3CCC[C@H]2C3)cc(-c2cnco2)c1 [Example 760] | A (A (EC1.5<1 μM)) |
| FC(F)(F)c1cccc(-c2ccc3c(n2)N(C(=S)Nc2cccc(-c4cnco4)c2)[C@H]2CCN3C2)c1 [Example 763] | A (A (EC1.5<1 μM)) |
| NCCCc1ccc(NC(=O)N2c3nc(-c4cccc(C(F)(F)F)c4)ccc3N3CC[C@H]2C3)cc1-c1cnco1 [Example 765] | A (A (EC1.5<1 μM)) |
| NCC#Cc1ccc(NC(=O)N2c3nc(-c4cccc(C(F)(F)F)c4)ccc3N3CC[C@H]2C3)cc1-c1cnco1 [Example 766] | A (A (EC1.5<1 μM)) |
| O=C(Nc1ccccn1)N1c2cc(-c3cccc(C(F)(F)F)c3)ccc2N2CC[C@H]1C2 [Example 785] | C (C (EC1.5>25 μM)) |
| O=C(Nc1cccc(-c2cnco2)c1)N1c2cc(-c3cccc(C(F)(F)F)c3)ccc2N2CC[C@H]1C2 [Example 786] | B (B (EC1.5 1-25 μM)) |
| CC(C)(C)OC(=O)NCc1cccc(-c2ccc3c(n2)N(C(=O)Nc2ccncc2)[C@H]2CCN3C2)c1 [Example 794] | B (B (EC1.5 1-25 μM)) |
| CC(C)(C)OC(=O)NCc1cccc(-c2ccc3c(n2)N(C(=O)Nc2ccncc2)[C@H]2CCCN3C2)c1 [Example 795] | B (B (EC1.5 1-25 μM)) |
| C#CCOc1cccc(NC(=O)N2c3nc(-c4cccc(C5(C(F)(F)F)N=N5)c4)ccc3N3CC[C@H]2C3)c1 [Example 797] | A (A (EC1.5<1 μM)) |
| C#CCCCNc1nccc(NC(=O)N2c3nc(-c4ccc(C5(C(F)(F)F)N=N5)cc4)ccc3N3CC[C@H]2C3)n1 [Example 798] | A (A (EC1.5<1 μM)) |
| C#CCOc1cc(-c2ccc3c(n2)N(C(=O)Nc2cccc(C4(C(F)(F)F)N=N4)c2)[C@H]2CCN3C2)cc(C(F)(F)F)c1 [Example 800] | C (C (EC1.5>25 μM)) |
| C#CCCCNc1nccc(NC(=O)N2c3nc(-c4cccc(C5(C(F)(F)F)N=N5)c4)ccc3N3CC[C@H]2C3)n1 [Example 801] | A (A (EC1.5<1 μM)) |
| C#CCOc1cccc(NC(=O)N2c3nc(-c4ccc(C5(C(F)(F)F)N=N5)cc4)ccc3N3CC[C@H]2C3)c1 [Example 802] | B (B (EC1.5 1-25 μM)) |
| C#Cc1ccc(NC(=O)N2c3nc(-c4cccc(C5(C(F)(F)F)N=N5)c4)ccc3N3CC[C@H]2C3)nc1 [Example 803] | A (A (EC1.5<1 μM)) |
| C#CCNc1nccc(NC(=O)N2c3nc(-c4cccc(C5(C(F)(F)F)N=N5)c4)ccc3N3CC[C@H]2C3)n1 [Example 804] | A (A (EC1.5<1 μM)) |
| C#CCNc1nccc(NC(=O)N2c3nc(-c4ccc(C5(C(F)(F)F)N=N5)cc4)ccc3N3CC[C@H]2C3)n1 [Example 805] | B (B (EC1.5 1-25 μM)) |
| [N-]=[N+]=Nc1cc(N=[N+]=[N-])cc(-c2ccc3c(n2)N(C(=O)Nc2ccc(F)cn2)[C@H]2CCN3C2)c1 [Example 806] | A (A (EC1.5<1 μM)) |
| C#Cc1ccc(NC(=O)N2c3nc(-c4ccc(C5(C(F)(F)F)N=N5)cc4)ccc3N3CC[C@H]2C3)nc1 [Example 807] | C (C (EC1.5>25 μM)) |
| [N-]=[N+]=NCc1cc(N=[N+]=[N-])cc(-c2ccc3c(n2)N(C(=O)Nc2cnccn2)[C@H]2CCN3C2)c1 [Example 808] | A (A (EC1.5<1 μM)) |
| C#CNc1nccc(NC(=O)N2c3nc(-c4cccc(C5(C(F)(F)F)N=N5)c4)ccc3N3CC[C@H]2C3)n1 [Example 809] | B (B (EC1.5 1-25 μM)) |
| O=C(Nc1ccnc(OC[C@H](O)CO)n1)N1c2nc(-c3cccc(C(F)(F)F)c3)ccc2N2CC[C@H]1C2 [Example 818] | A (A (EC1.5<1 μM)) |
| O=C(Nc1cccc(OC[C@H](O)CO)n1)N1c2nc(-c3cccc(C(F)(F)F)c3)ccc2N2CC[C@H]1C2 [Example 819] | A (A (EC1.5<1 μM)) |
| O=C(Nc1cccnn1)N1c2nc(-c3cccc(Cl)c3)ccc2N2CC[C@H]1C2 [Example 822] | A (A (EC1.5<1 μM)) |

Other lines, results leading:

| Tryp AVG EC1.5 (μM) | Compound |
| --- | --- |
| A (A (EC1.5<1 μM)) | NCc1cccc(NC(=O)N2c3nc(-c4cccc(C(F)(F)F)c4)ccc3N3CCC[C@H]2C3)c1 [Example 757] |
| A (A (EC1.5<1 μM)) | NCCCCCC(=O)NCc1cccc(NC(=O)N2c3nc(-c4cccc(C(F)(F)F)c4)ccc3N3CC[C@H]2C3)c1 [Example 758] |
| A (A (EC1.5<1 μM)) | NCCCc1ccc(NC(=O)N2c3nc(-c4cccc(C(F)(F)F)c4)ccc3N3CCC[C@H]2C3)cc1-c1cnco1 [Example 767] |
| A (A (EC1.5<1 μM)) | NCCCc1cc(NC(=O)N2c3nc(-c4cccc(C(F)(F)F)c4)ccc3N3CCC[C@H]2C3)cc(-c2cnco2)c1 [Example 770] |
| A (A (EC1.5<1 μM)) | N=C(N)NCc1ncc(-c2cccc(NC(=O)N3c4nc(-c5cccc(C(F)(F)F)c5)ccc4N4CC[C@H]3C4)c2)o1 [Example 776] |
| A (A (EC1.5<1 μM)) | N=C(N)NCc1ccc(NC(=O)N2c3nc(-c4cccc(C(F)(F)F)c4)ccc3N3CCC[C@H]2C3)cc1 [Example 777] |
| A (A (EC1.5<1 μM)) | CC(C)(C)OC(=O)NCCNC(=N)c1ccc(NC(=O)N2c3nc(-c4cccc(C(F)(F)F)c4)ccc3N3CCC[C@H]2C3)cc1 [Example 788] |
| A (A (EC1.5<1 μM)) | CC(=O)NCc1ccc(NC(=O)N2c3nc(-c4cccc(C(F)(F)F)c4)ccc3N3CCC[C@H]2C3)cc1 [Example 790] |
| A (A (EC1.5<1 μM)) | N=C(NCCN)c1ccc(NC(=O)N2c3nc(-c4cccc(C(F)(F)F)c4)ccc3N3CCC[C@H]2C3)cc1 [Example 792] |
| B (B (EC1.5 1-25 μM)) | CC(C)(C)OC(=O)NCc1ccc(NC(=O)N2c3nc(-c4cccc(C(F)(F)F)c4)ccc3N3CC[C@H]2C3)cc1 [Example 793] |
| B (B (EC1.5 1-25 μM)) | O=C(NCc1ccc(NC(=O)N2c3nc(-c4cccc(C(F)(F)F)c4)ccc3N3CC[C@H]2C3)cc1)OC[C@@H]1[C@@H]2CCC#CCC[C@@H]21 [Example 796] |
| A (A (EC1.5<1 μM)) | [N-]=[N+]=NCC(=O)NCc1ccc(NC(=O)N2c3nc(-c4cccc(C(F)(F)F)c4)ccc3N3CC[C@H]2C3)cc1 [Example 799] |
| A (A (EC1.5<1 μM)) | O=C(Nc1ccncc1)N1c2nc(-c3cccc(C(F)(F)F)c3)ccc2N2CC[C@H]1C2 [Example 817] |
| A (A (EC1.5<1 μM)) | O=C(Nc1ccccn1)N1c2nc(-c3cccc(C(F)(F)F)c3)ccc2N2CCC[C@H]1C2 [Example 820] |
| A (A (EC1.5<1 μM)) | O=C(Nc1ccncc1)N1c2nc(-c3cccc(C(F)(F)F)c3)ccc2N2CCC[C@H]1C2 [Example 821] |
| A (A (EC1.5<1 μM)) | O=C(Nc1ccccn1)N1c2nc(-c3cccc(C(F)(F)F)c3)ccc2N2CC[C@@H]1C2 [Example 823] |
| A (A (EC1.5<1 μM)) | O=C(Nc1ccncc1)N1c2nc(-c3cccc(C(F)(F)F)c3)ccc2N2CC[C@@H]1C2 [Example 824] |

Same assay, conditions: percent maximum fold activation of SIRT1; Trp peptide substrate; read-out: Tryp % Fold Act

| Compound | Emax [%] |
| --- | --- |
| NCCCc1cc(NC(=O)N2c3nc(-c4cccc(C(F)(F)F)c4)ccc3N3CCC[C@H]2C3)cc(-c2cnco2)c1 [Example 770] | > 150 |
| CC(C)(C)OC(=O)NCc1cccc(-c2ccc3c(n2)N(C(=O)Nc2ccncc2)[C@H]2CCN3C2)c1 [Example 794] | > 150 |
| C#CCCCNc1nccc(NC(=O)N2c3nc(-c4ccc(C5(C(F)(F)F)N=N5)cc4)ccc3N3CC[C@H]2C3)n1 [Example 798] | > 150 |
| [N-]=[N+]=Nc1cc(N=[N+]=[N-])cc(-c2ccc3c(n2)N(C(=O)Nc2ccc(F)cn2)[C@H]2CCN3C2)c1 [Example 806] | > 150 |
| C#CNc1nccc(NC(=O)N2c3nc(-c4cccc(C5(C(F)(F)F)N=N5)c4)ccc3N3CC[C@H]2C3)n1 [Example 809] | > 150 |
| O=C(Nc1ccnc(OC[C@H](O)CO)n1)N1c2nc(-c3cccc(C(F)(F)F)c3)ccc2N2CC[C@H]1C2 [Example 818] | > 150 |
